We go through one compound from patent US8846653B2, “Delta-tocotrienol treatment and prevention of pancreatic cancer” (University of South Florida, priority 2006, dated 2014).

Data set [1] concerns SW1990 cells. The data set is described as follows: Proliferation by MTT, increasing concentrations of δ-tocotrienol. The conditions noted are these: SW1990, at 24 hours; read-out: IC50 (inhibition of proliferation, MTT). Format: cell-based, human. Here is the method: FIG. 23 is a graph wherein SW1990 pancreatic cancer cells (3×10^3) were plated in 96 well plates and treated the following day with δ-tocotrienol. Proliferation was assessed by MTT at 24 hour intervals. […] HPDE 6C7 cells were also treated with increasing concentrations of 8-tocotrienol for 24 hours.
(§1) MIA PaCa2, SW1990, BXPC3, and HPDE 6C7 cells (3×10^3) were cultured as described in the Examples above, in 96-well plates and treated the following day with increasing concentrations of δ-tocotrienol.

For data set [2], the system named is HPDE 6C7 cells. Described as above. Format: cell-based, human. The conditions noted are these: HPDE 6C7, 24 hours, even at the highest concentrations. How it is done:
as §1

Data set [3] relates to BxPc-3 cells. Description: Annexin V-FITC staining, flow cytometry for apoptosis. Format: cell-based, human. The following applies: BxPc-3, varying concentrations, 24 hours. Here is the method:
FIG. 4 is a graph wherein BXPC3 pancreatic cancer cells were treated with in varying concentrations of δ-tocotrienol or vehicle for 24 hours. Cells were collected and stained with Annexin V-FITC and analyzed by flow cytometry for apoptosis.
MiaPaCa2 and HPDE 6C7 cells were cultured, as discussed above, and treated with δ-tocotrienol or vehicle. […] MiaPaCa-2, BxPc-3, and SW1990 pancreatic cancer cells were treated with in varying concentrations of δ-tocotrienol or vehicle for 24 hours. The cells were then harvested for annexin V-FITC staining and analyzed by flow cytometry.

Data set [4] concerns BXPC3 cells. Description: Cell cycle phase by propidium iodide flow cytometry. Format: cell-based, human. The following applies: BXPC3, 20 μM, 24 hours. How it is done:
(§2) MIA PaCa2, SW 1990, BXPC3 and HPDE 6C7 cells were treated with either 8-tocotrienol 20 μM or vehicle for 24 hours. Cells were harvested, washed twice in PBS, and fixed in ethanol overnight. Pellets were washed the following day in PBS, stained with propidium iodide, and analyzed by flow cytometry for cell cycle phase. […] Important regulators of the G1 cell cycle phase include members of the cyclin kinase inhibitor family. One of these members, p27^kip1, appears to be important in the progression of pancreatic cancer.

Data set [5] deals with HPDE 6C7 cells. The data set is described as above. Format: cell-based, human. The conditions noted are these: HPDE 6C7, 20 μM, 24 hours. How it is done: as §2
The test system of data set [6] is MIA PaCa2 cells. The data set is described as above. Format: cell-based, human. The following applies: MIA PaCa2, 20 μM, 24 hours. How it is done: as §2
Data set [7] relates to SW 1990 cells. The data set is described as above. Format: cell-based, human. The following applies: SW 1990, 20 μM, 24 hours. How it is done: as §2
Data set [8] concerns p-AKT. The data set is described as follows: Immunoblot for p-AKT and AKT. Format: cell-based, human. The conditions noted are these: MIA PaCa2 and SW1990, 20 μM, 24 and 48 hours. How it is done: The Ras effector pathways Raf-MEK-ERK and PI3 kinase-AKT are important for cell proliferation and survival, respectively. Pancreatic cancer cell lines (MIA PaCa2, SW1990, BXPC3) and HPDE 6C7 cells were treated with 8-tocotrienol (20 μM) and cell lysates were collected and prepared at progressive time intervals as described above. Proteins from lysates were run by SDS PAGE and immunoblotted with the following antibodies: Ras, p-cRaf (ser 338), p-MEK1/2, MEK1/2, pERK 44/42, ERK 44/42 (Cell Signaling) and c-Raf (BD Transduction Laboratories). […] The MIA PaCa2 and SW1990 cells were then tested for AKT inhibition. The cells were treated with δ-tocotrienol (20 μM) for 24 and 48 hours and cell lysates were run by SDS-PAGE and immunoblotted for p-AKT and AKT (Cell Signaling). […] Taken together, the inhibition of downstream effectors of oncogenic Ras signaling by δ-tocotrienol without an effect on Ras protein levels may indicate a negative regulatory role of 8-tocotrienol on the function of oncogenic Ras. The pancreatic ductal epithelial cell proliferative inhibition by δ-tocotrienol was tested to see if it occurs through blocking aberrant signal transduction cascades. […]
Background: A western blot detects proteins with antibodies after separation by electrophoresis.

Data set [9] deals with MIA PaCa2 cells. The data set is described as follows: MTT cell viability, δ-tocotrienol, fluorouracil or combination. Format: cell-based, human. Here is the method: FIG. 39 is a graph MIA PaCa2 pancreatic cancer cells (3×10^3) treated with indicated concentrations of delta-tocotrienol, fluorouracil (5FU), or a combination of the indicated delta-tocotrienol and 5FU.
The MiaPaCa 2 cells were plated as above into 96 well plates and treated the following day with increasing concentrations of δ-tocotrienol, fluorouracil (5FU), or a combination of δ-tocotrienol and fluorouracil. The cells were collected and analyzed for cell viability using an MTT assay. […] MIA PaCa2 cells (3×10^3) were cultured as described in the Examples above, in 96-well plates and treated the following day with vehicle, δ-tocotrienol, fluorouracil, or a combination of δ-tocotrienol and fluorouracil.

The nature of data set [10]: Plasma and mouse tissue levels by HPLC-UV. Format: in vivo. The text has this:
FIG. 52 is a graph showing tissue levels of delta-tocotrienol. *p=0.0044; # p=0.0034; † p=0.0181.

Data set [11] deals with MIA PaCa-2 cells (pZWL vector and myrAKT). The data set is described as follows: Cell death (trypan blue) in vector and myrAKT MIA PaCa-2 cells. Format: cell-based, human. The following applies: MIA PaCa-2 vector vs myr-AKT cells, 24 hours, compared to vehicle. Here is the method: FIG. 12 is a graph wherein MIA PaCa-2 cells (pZWL vector and myrAKT) were treated without serum vehicle or δ-tocotrienol (50 μM) for 24 hours, with and without a 10-hour caspase 8/3 inhibitor pretreatment. Cells were also treated with TRAIL as a positive control. Cells were then harvested, fixed, permeablized and stained with trypan blue.
To further identify the role of AKT in the apoptotic pathways noted in Example 2, functional overexpression of CA-AKT was analyzed in Mia-PaCa2 pancreatic cancer cells. MIA PaCa-2 cells were treated with pZWL vector and myrAKT, a retroviral vector encoding myristoylated AKT, with or without serum, vehicle, or δ-tocotrienol (40 or 50 μM) for 24 hours, with and without a 10-hour caspase 8 inhibitor pretreatment. Cells were also treated with TRAIL as a positive control. Cells were then harvested, fixed, permeablized and stained with trypan blue.
The myristoylated AKT rescued δ-tocotrienol suppression PI3K-AKT signaling. The MiaPaCa-2 parental cell lines were stably transfected using constitutively active myristoylated AKT in a pWZL vector construct to generate MiaPaCa-2AKT cells. […] Lastly, pretreatment with caspase 3, 8 and 9 inhibitors rescued tocotrienol induced cell death.

As to `CC(C)=CCC/C(C)=C/CC/C(C)=C/CC[C@]1(C)CCc2cc(O)cc(C)c2O1` [T3 delta, delta tocotrienol], the IC50 is 20 to 25 µM in [1] and 50 µM in [9] (at 24 hours). Also, the antiproliferative effect result in data set [2] was “relatively resistant”. Besides, the “induction of apoptosis (annexin V-FITC)” value in data set [3] is recorded as “dose dependent induction of apoptosis”. The cell cycle phase entry in data set [4] is on record as “significant G1 cell cycle arrest”; in data set [5], “no effect on cell cycle phase”; in [6] it was “significant G1 cell cycle arrest”; in data set [7], “significant G1 cell cycle arrest”. Also, the p-AKT protein levels entry in [8] was “decrease in p-AKT protein levels”. In data set [9], the “concentration at which the effect became significant vs vehicle” value was found to be 50 µM. Also, the plasma level entry in data set [10] (mouse plasma) is “detectable in plasma”. Besides, the “localization in the pancreas compared to liver and pancreatic tumor levels (factor)” value in data set [10] (mouse tissue) is listed as 10. The cell death result in data set [11] is listed as “induced more cell death in the vector cells than the myr-AKT cells”.
